Patent US20070042938A1, “Use of dpiv and apn inhibitors for the treatment of dermatalogical diseases involving the hyperproliferation and modified differentiation conditions of fibroblasts” (priority 2003, published 2007)

Tested on: human fibroblasts
Test: DNA synthesis of human fibroblasts (3[H]-thymidine incorporation)
Assay type: cell-based
Details: fibroblasts of healthy donors, 48 h incubation with inhibitor, then 3[H]-methyl thymidine for further 6 h; dose-dependent (FIG. 3)
Protocol: Fibroblasts of healthy donors were incubated for 48 h together with the above-mentioned inhibitors, and the DNA synthesis was determined subsequently by a measurement of the ^3[H]-thymidine incorporation, as described by Reihold et al. (Reinhold D et al.: Inhibitors of dipeptidyl peptidase IV induce secretion of transforming growth factor β1 in PWM-stimulated PBMNC and T cells, Immunology 1997, 91: 354-360).
For measuring the dose-dependent effect of inhibitors of DP IV (Lys[Z(NO2)] thiazolidide) and of aminopeptidase N (Actinonin) on the DNA synthesis of human fibroblasts, cells were incubated for 48 h with the indicated concentrations of the inhibitors. Subsequently, ^3[H]-Methyl thymidine was added to the culture medium, and the amount of ^3[H]-thymidine incorporated into the DNA was measured after further 6 h.

## CCCCC[C@H](CC(=O)NO)C(=O)N[C@H](C(=O)N1CCC[C@H]1CO)C(C)C [Actinonin]
  inhibition of the DNA synthesis of human fibroblasts: inhibited

## N[C@@H](CCCCNC(=O)OCc1ccc([N+](=O)[O-])cc1)C(=O)N1CCSC1 [Lys[Z(NO2)] thiazolidide]
  inhibition of the DNA synthesis of human fibroblasts: inhibited
